Source: patent publication US8791133B2, “Pyridylvinylpyrazoloquinolines as PAR1 inhibitors” (Sanofi, priority 2010, dated 2014)

molecular target: T1, PAR1 (Homo sapiens, UniProt P25116); test: Inhibition of PAR1-mediated platelet aggregation induced by TRAP (thrombin receptor-activating peptide), 96-well format; type: cell-based; details: washed platelets from healthy volunteers; TRAP as agonist; AUC of kinetics at 650 nm, 37° C., 20 minutes
T1 construct: endogenous in cells; host or cells: washed blood platelets from healthy volunteers
T1 sequence (P25116 22-425): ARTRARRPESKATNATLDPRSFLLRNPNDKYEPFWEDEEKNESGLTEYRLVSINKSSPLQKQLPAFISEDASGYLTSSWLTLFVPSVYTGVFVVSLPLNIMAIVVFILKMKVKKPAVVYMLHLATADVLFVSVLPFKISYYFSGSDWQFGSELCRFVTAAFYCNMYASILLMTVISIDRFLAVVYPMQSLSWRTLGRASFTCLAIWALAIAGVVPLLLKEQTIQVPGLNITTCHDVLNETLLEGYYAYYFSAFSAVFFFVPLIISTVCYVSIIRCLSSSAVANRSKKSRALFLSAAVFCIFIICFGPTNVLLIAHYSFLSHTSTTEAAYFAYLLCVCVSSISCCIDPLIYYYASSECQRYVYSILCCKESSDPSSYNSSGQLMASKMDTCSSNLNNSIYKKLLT
Method: PAR1 Determination Method: Inhibition of PAR1-Mediated Platelet Aggregation
The pharmacological testing of the substances took place in platelet aggregation induced by TRAP (thrombin receptor-activating peptide) in 96-well format. For this purpose, blood was taken from healthy volunteers in 20 ml syringes containing 2 ml of 3.13% strength sodium citrate solution. After centrifugation at 150×g for 20 minutes, the platelet-rich plasma (PRP) was separated off and mixed with 1 μl of PGE1 solution (500 μg/ml in ethanol)/ml of PRP. Incubation at RT for 5 minutes was followed by centrifugation at 120×g for 15 minutes to remove the leukocytes. The leukocyte-free PRP was transferred in 5 ml portions into 15 ml PP tubes and centrifuged at 360×g for 15 minutes in order to pellet the platelets. The plasma was then decanted off and the platelet sediment from 5 ml of PRP was resuspended in 1 ml of Tyrode's (120 mM NaCl, 2.6 mM KCl, 12 mM NaHCO3, 0.39 mM NaH2PO4×H2O, 10 mM HEPES, 0.35% BSA (Bovine Serum Albumin), 5.5 mM glucose, pH 7.4) and adjusted with Tyrode's to a platelet count of 3×10^5/microliter (μl). 13 μl of this cell suspension were then mixed with 866 μl of 10 mM CaCl2 solution, and 120 μl thereof were pipetted into each well of a 96-well plate containing 15 μl of the substance to be tested. After incubation at RT in the dark for 30 minutes, 15 μl of a TRAP solution (70-100 μM) were added as agonist, and kinetics were recorded at 650 nm in a SpectraMax 340 at 37° C. for 20 minutes while shaking. The areas under the curves of negative control (Tyrode's/DMSO) and positive control (15 μl of agonist/DMSO) were calculated and the difference was fixed as the 100% value. The substances to be tested were pipetted as serial dilutions in duplicate determination, the AUC was likewise determined for each substance concentration, and the % inhibition of the AUC compared with the control was calculated. On the basis of the % inhibition, the IC50 was calculated by nonlinear regression analysis according to the 4-parameter equation.

| SMILES | IC50 |
| --- | --- |
| CC(C)C1CC(=O)C2=C(C1)Nc1[nH]nc(C(=O)NCC3CC3)c1C2/C=C/c1ccc(-c2cccc(F)c2)cn1 (mixture of isomers) [Example 10, 4-{(E)-2-[5-(3-Fluorophenyl)pyridin-2-yl]vinyl}-7-isopropyl-5-oxo-4,5,6,7,8,9-hexahydro-1H-pyrazolo[3,4-b]quinoline-3-cyclopropylmethylcarboxamide] | 1390 nM |
| CC1CC(=O)C2=C(C1)Nc1[nH]nc(C(=O)NCC3CC3)c1C2/C=C/c1ccc(-c2cccc(F)c2)cn1 (single isomer, unassigned) [diastereomer 1 from example 13] | 5120 nM |
| O=C1CC2(CCCC2)CC2=C1C(/C=C/c1ccc(-c3cccc(F)c3)cn1)c1c(C(=O)NC3CCCC3)n[nH]c1N2 (stereo not shown) [Example 47] | 1400 nM |
| CC(C)NC(=O)c1n[nH]c2c1C(/C=C/c1ccc(-c3cccc(F)c3)cn1)C1=C(CC(C)(C)CC1=O)N2 (stereo not shown) [Example 8, 4-{(E)-2-[5-(3-Fluorophenyl)pyridin-2-yl]vinyl}-7,7-dimethyl-5-oxo-4,5,6,7,8,9-hexahydro-1H-pyrazolo[3,4-b]quinoline-3-isopropylcarboxamide] | 1880 nM |
| COCCNC(=O)c1n[nH]c2c1C(/C=C/c1ccc(-c3cccc(F)c3)cn1)C1=C(CC3(CCC3)CC1=O)N2 (stereo not shown) [Example 46] | 1500 nM |
| O=C1CC2(CCCC2)CC2=C1C(/C=C/c1ccc(-c3cccc(F)c3)cn1)c1c(C(=O)NC[C@H]3C[C@@H](O)C3)n[nH]c1N2 (stereo partly shown) [Example 38] | 820 nM |
| CN1C2=C(C(=O)CC3(CCCC3)C2)C(/C=C/c2ccc(-c3cccc(F)c3)cn2)c2c(C(=O)NCC(C)(C)C)n[nH]c21 (stereo not shown) [Example 37] | 710 nM |
| CC1(CNC(=O)c2n[nH]c3c2C(/C=C/c2ccc(-c4cccc(F)c4)cn2)C2=C(CC4(CCCC4)CC2=O)N3)COC1 (stereo not shown) [Example 54] | 840 nM |
| CC(C)(C)CNC(=O)c1n[nH]c2c1C(/C=C/c1ccc(-c3cccc(F)c3)cn1)C1=C(CC(C)(C)CC1=O)N2 (stereo not shown) [Example 15, 4-{(E)-2-[5-(3-Fluorophenyl)pyridin-2-yl]vinyl}-7,7-dimethyl-5-oxo-4,5,6,7,8,9-hexahydro-1H-pyrazolo[3,4-b]quinoline-3-(2,2-dimethylpropyl)carboxamide] | 4230 nM |

Next, values leading:

| IC50 | SMILES |
| --- | --- |
| < 400 nM | O=C1CC2(CCCC2)CC2=C1C(C=Cc1ccc(-c3cccc(F)c3)cn1)c1c(C(=O)NCC3(CO)CCC3)n[nH]c1N2 (stereo not shown) [Example 33] |
| 1200 nM | COCCNC(=O)c1n[nH]c2c1C(/C=C/c1ccc(-c3cccc(F)c3)cn1)C1=C(CC3(CCCC3)CC1=O)N2 (stereo not shown) [Example 43] |
| 380 nM | CC(C)(CO)CNC(=O)c1n[nH]c2c1C(C=Cc1ccc(-c3cccc(F)c3)cn1)C1=C(CC3(CCCC3)CC1=O)N2 (stereo not shown) [Example 31] |
| 460 nM | CC(C)(CO)CNC(=O)c1n[nH]c2c1C(C=Cc1ccc(-c3cccc(F)c3)cn1)C1=C(CC3(CCC3)CC1=O)N2 (stereo not shown) [Example 36] |
| 410 nM | O=C1CC2(CCCC2)CC2=C1[C@H](/C=C/c1ccc(-c3cccc(F)c3)cn1)c1c(C(=O)NCC3(CO)CC3)n[nH]c1N2 [Example 35] |
| 450 nM | COC(C)(C)CNC(=O)c1n[nH]c2c1C(C=Cc1ccc(-c3cccc(F)c3)cn1)C1=C(CC3(CCCC3)CC1=O)N2 (stereo not shown) [Example 39] |
| 910 nM | CC(C)(CN)CNC(=O)c1n[nH]c2c1C(/C=C/c1ccc(-c3cccc(F)c3)cn1)C1=C(CC3(CCCC3)CC1=O)N2 (stereo not shown) [Example 50] |
